Laboratory results published in patent US20250171460A1, “INDUCERS OF KLF2 AND METHODS OF USE THEREOF” (Riparian Pharmaceuticals, Inc., priority 2022, published 2025).
Like-named read-outs stand apart in the source and are kept apart here.

Tested on: primary human endothelial cells expressing luciferase under the control of the KLF2 promoter
Assay: KLF2 Induction Cell Based Bioassay (luciferase reporter)
Details: Homo sapiens, Endothelial cell
From the text: In endothelial cell culture media, a stock of the highest working concentration was made at no more than 1% DMSO vehicle. The working stock was then serially diluted 1:2 to make an 11-point concentration response curve. Included in the 96-well plate were 2 reference compounds with known potencies. A DMSO column was included in the 96-well plate at the highest percent vehicle of the working stocks. The 96-well cell culture plate of primary human endothelial cells expressing luciferase under the control of the KLF2 promoter was dosed with 200 μL per well of the dilution series as well as the DMSO control column. The assay plate was incubated at 37° C. for 24 hours. The supernatant was collected at 24 hours.
20 μL of the supernatant was then placed in a 384-well plate with optical duplicates. The corners of the plate received 20 μL of the Gaussia Luciferase Enzyme positive control, as well as 20 μL of the 50 μM Coelenterizine substrate. The plate read is then calibrated using the control, and read using a Molecular Devices SpectraMax iD5, providing luminescence in relative light units (RLU). The plate reader injected 20 μL of the 50 μM Coelenterizine substrate immediately before taking the RLU measurement for each well.
The sample signals were then normalized to the average signal of the DMSO column, as well as to the maximum signal of one of the reference compounds, as shown in the equations below: […]
The EC50 of each compound is then defined as when the concentration response curve passes 0.5.

[1] = 24 h, KLF2 promoter luciferase, 24 hours, 11-point concentration response, read-out: Activity Range (EC50)

| Compound | EC50 [1] | also measured |
| --- | --- | --- |
| COc1cccc(F)c1CNC(=O)C1(C)COc2c(oc3cc(-c4ncco4)cnc23)C(=O)N1CC(=O)N(C)C (centres unmarked) [Example 124, 4-(2-(dimethylamino)-2-oxoethyl)-N-(2-fluoro-6-methoxybenzyl)-3-methyl-8-(oxazol-2-yl)-5-oxo-2,3,4,5-tetrahydropyrido[2′,3′:4,5]furo[2,3-f][1,4]oxazepine-3-carboxamide] | 51 to 500 nM | – |
| COCCN1C(=O)c2oc3cc(C(=O)NC4CCC4)ccc3c2OC[C@@]1(C)C(=O)NCc1ccccc1OC [Example 49, (S)—N8-cyclobutyl-N3-(2-methoxybenzyl)-4-(2-methoxyethyl)-3-methyl-5-oxo-2,3,4,5-tetrahydrobenzofuro[2,3-f][1,4]oxazepine-3,8-dicarboxamide] | 501 to 5000 nM | EC50 (Bioactivity of stereoisomers: S isomer, read-out: Bioactivity Bucket, S): 501 to 5000 nM |
| COCCN1C(=O)c2oc3ccccc3c2OCC1(C)C(=O)NCc1cc(F)c(Cl)cc1OC (centres unmarked) [Example 45] | 501 to 5000 nM | – |
| COc1cccc(Cl)c1CNC(=O)C1(C)COc2c(oc3cc(C(=O)NC4(C)COC4)ccc23)C(=O)N1[C@H]1C[C@@H](OC)C1 (some centres unmarked) [Example 85] | ≤ 50 nM | – |
| COc1cccnc1CNC(=O)[C@@]1(C)COc2c(oc3cc(-c4ncco4)ccc23)C(=O)N1CC(=O)N(C)C [Example 125, (R)-4-(2-(dimethylamino)-2-oxoethyl)-N-((3-methoxypyridin-2-yl)methyl)-3-methyl-8-(oxazol-2-yl)-5-oxo-2,3,4,5-tetrahydrobenzofuro[2,3-f][1,4]oxazepine-3-carboxamide] | ≤ 50 nM | – |
| COc1ccccc1CNC(=O)C1(C)COc2c(oc3ccccc23)C(=O)N1C1CCC1 (centres unmarked) [Example 13] | 501 to 5000 nM | – |
| COc1cccc(F)c1CNC(=O)C1(C)COc2c(oc3ccc(Cl)cc23)C(=O)N1CC(=O)N(C)C (racemic) [Example 106, 9-chloro-4-(2-(dimethylamino)-2-oxoethyl)-N-(2-fluoro-6-methoxybenzyl)-3-methyl-5-oxo-2,3,4,5-tetrahydrobenzofuro[2,3-f][1,4]oxazepine-3-carboxamide] | 51 to 500 nM | EC50 (Bioactivity of stereoisomers: racemate, read-out: Bioactivity Bucket, Racemate): 51 to 500 nM |
| COc1cccnc1CNC(=O)C1(C)COc2c(oc3cc(C(=O)NC4(C)COC4)ccc23)C(=O)N1[C@H]1C[C@@H](OC)C1 (some centres unmarked) [Example 78] | 51 to 500 nM | – |
| COc1cccnc1CNC(=O)C1(C)COc2c(oc3cc(C(=O)NC4CCC4)ccc23)C(=O)N1[C@H]1C[C@@H](OC)C1 (some centres unmarked) [Example 54] | 51 to 500 nM | – |
| COc1cc(F)ccc1CNC(=O)C1(C)COc2c(oc3cc(C(=O)NC4(C)COC4)ccc23)C(=O)N1CC1CC1 (centres unmarked) [Example 59] | 51 to 500 nM | – |
| COc1cccc(F)c1CNC(=O)C1(C)COc2c(oc3ccc(F)cc23)C(=O)N1CC(=O)N(C)C (centres unmarked) [Example 112, 4-(2-(dimethylamino)-2-oxoethyl)-9-fluoro-N-(2-fluoro-6-methoxybenzyl)-3-methyl-5-oxo-2,3,4,5-tetrahydrobenzofuro[2,3-f][1,4]oxazepine-3-carboxamide] | 51 to 500 nM | – |
| COCCN1C(=O)c2oc3ccccc3c2OC[C@]1(C)C(=O)NCc1ccccc1OC [Example 40] | 501 to 5000 nM | EC50 (Bioactivity of stereoisomers: R isomer, read-out: Bioactivity Bucket, R): 501 to 5000 nM |
| COc1cccnc1CNC(=O)[C@@]1(C)COc2c(oc3cc(-c4nc(C(F)(F)F)cs4)ccc23)C(=O)N1CC(=O)N(C)C [Example 128] | ≤ 50 nM | – |
| COc1ccccc1CNC(=O)C1(C)COc2c(oc3ccccc23)C(=O)N1CC1(OC)CCC1 (centres unmarked) [Example 10] | 501 to 5000 nM | – |
| COc1ccccc1CNC(=O)C1(C)COc2c(oc3ccccc23)C(=O)N1CC1(O)CCC1 (centres unmarked) [Example 11] | 501 to 5000 nM | – |
| [2H]C([2H])([2H])N(C(=O)CN1C(=O)c2oc3ccc(Cl)cc3c2OC[C@]1(C)C(=O)NCc1ncccc1OC)C([2H])([2H])[2H] [Example 103] | 51 to 500 nM | – |
| COCCN1C(=O)c2oc3cc(C(=O)NC4(C)COC4)ccc3c2OCC1(C)C(=O)NCc1c(Cl)cccc1OC (centres unmarked) [Example 64] | 51 to 500 nM | – |
